ChEMBL document CHEMBL1135457 (J Med Chem, 2002)

Tests used:
[1] = target: T1, Progesterone receptor (Homo sapiens) (UniProt P06401); experiment: Antagonist activity against human Progesterone receptor
T1 sequence (whole entry): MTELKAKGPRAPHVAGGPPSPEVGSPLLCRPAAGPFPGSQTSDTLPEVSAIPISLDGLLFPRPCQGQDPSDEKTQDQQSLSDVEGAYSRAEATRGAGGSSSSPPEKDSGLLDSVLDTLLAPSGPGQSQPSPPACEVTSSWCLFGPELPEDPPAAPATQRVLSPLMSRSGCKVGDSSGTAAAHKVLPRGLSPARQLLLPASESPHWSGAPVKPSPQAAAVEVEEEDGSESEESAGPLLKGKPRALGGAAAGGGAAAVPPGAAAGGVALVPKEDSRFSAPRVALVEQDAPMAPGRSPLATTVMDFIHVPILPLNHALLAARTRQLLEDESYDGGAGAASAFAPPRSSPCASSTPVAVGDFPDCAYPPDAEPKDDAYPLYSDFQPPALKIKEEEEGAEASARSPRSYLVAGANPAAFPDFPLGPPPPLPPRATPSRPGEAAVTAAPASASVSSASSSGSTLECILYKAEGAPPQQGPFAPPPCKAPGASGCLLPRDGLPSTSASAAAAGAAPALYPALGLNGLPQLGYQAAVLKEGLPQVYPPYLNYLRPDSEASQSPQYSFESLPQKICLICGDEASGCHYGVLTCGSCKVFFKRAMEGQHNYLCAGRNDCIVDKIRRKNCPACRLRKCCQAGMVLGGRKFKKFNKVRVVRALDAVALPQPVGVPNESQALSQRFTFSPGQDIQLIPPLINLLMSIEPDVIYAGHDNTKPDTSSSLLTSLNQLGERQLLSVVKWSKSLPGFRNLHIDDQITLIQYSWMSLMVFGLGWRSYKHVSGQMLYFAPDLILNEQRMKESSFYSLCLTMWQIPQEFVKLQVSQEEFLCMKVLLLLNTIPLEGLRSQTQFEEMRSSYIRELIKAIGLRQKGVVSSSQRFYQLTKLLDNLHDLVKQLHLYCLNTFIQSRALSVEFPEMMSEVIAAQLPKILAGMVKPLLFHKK

Progesterone receptor = target: T2, Progesterone receptor (Homo sapiens, UniProt P06401); experiment: Displacement of radioligand from human Progesterone receptor
T2 sequence (P06401 whole entry): T1 sequence (whole entry)

[2] = target: T3, Mineralocorticoid receptor (Homo sapiens) (UniProt P08235); experiment: Antagonist activity against human mineralocorticoid receptor as displacement of radioligand; format: functional
T3 sequence (whole entry): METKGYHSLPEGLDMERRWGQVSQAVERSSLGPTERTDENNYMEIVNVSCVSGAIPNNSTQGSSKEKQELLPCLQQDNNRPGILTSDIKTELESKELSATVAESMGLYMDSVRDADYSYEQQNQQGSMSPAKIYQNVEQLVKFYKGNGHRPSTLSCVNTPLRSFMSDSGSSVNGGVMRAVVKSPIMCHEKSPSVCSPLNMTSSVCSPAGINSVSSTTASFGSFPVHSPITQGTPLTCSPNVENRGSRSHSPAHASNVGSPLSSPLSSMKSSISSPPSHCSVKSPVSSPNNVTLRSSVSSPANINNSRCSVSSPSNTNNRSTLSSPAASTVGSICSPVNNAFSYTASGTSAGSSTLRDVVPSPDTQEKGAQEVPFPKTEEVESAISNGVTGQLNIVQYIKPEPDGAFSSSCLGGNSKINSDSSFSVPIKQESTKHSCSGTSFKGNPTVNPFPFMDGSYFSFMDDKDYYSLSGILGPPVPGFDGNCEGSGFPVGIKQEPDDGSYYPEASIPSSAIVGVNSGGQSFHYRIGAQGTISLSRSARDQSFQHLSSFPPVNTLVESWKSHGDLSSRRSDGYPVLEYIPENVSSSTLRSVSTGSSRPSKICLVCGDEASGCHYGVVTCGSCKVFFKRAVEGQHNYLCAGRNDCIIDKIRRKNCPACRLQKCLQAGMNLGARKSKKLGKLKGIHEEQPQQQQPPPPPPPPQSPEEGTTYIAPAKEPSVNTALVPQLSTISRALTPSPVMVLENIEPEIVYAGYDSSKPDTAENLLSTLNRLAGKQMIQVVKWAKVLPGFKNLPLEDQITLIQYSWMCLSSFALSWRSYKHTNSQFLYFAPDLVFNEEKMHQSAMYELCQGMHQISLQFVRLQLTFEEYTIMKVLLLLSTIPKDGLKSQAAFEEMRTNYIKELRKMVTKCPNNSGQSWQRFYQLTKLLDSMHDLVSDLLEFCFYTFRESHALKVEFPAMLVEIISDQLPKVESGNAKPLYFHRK

[3] = target: T4, Glucocorticoid receptor (Homo sapiens) (UniProt P04150)
T4 sequence (whole entry): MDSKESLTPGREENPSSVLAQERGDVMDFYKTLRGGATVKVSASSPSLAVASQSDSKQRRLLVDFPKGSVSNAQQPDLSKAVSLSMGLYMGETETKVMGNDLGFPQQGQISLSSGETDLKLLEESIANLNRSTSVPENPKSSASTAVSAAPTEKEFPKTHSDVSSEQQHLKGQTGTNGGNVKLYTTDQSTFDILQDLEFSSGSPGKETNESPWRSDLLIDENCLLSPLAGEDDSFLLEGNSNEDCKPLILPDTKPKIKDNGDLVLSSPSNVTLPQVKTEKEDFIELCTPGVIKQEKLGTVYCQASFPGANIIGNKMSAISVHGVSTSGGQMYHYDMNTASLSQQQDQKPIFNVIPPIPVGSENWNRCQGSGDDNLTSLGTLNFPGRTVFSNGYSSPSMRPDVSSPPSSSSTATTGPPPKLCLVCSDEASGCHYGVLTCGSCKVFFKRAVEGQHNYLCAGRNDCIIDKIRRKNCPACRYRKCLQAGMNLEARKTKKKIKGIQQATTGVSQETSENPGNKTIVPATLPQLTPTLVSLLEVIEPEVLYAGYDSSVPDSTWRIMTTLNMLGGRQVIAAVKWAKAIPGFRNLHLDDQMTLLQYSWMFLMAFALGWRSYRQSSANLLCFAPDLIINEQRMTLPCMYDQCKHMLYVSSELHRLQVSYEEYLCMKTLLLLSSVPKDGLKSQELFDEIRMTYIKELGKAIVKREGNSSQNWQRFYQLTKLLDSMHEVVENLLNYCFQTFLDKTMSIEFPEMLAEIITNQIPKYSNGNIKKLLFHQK
Description: (§1) Antagonist activity as displacement of 10 nM [3H]dexamethasone from human Glucocorticoid receptor

Estrogen receptor beta = Estrogen receptor beta (Homo sapiens, UniProt Q92731); experiment: Displacement of radioligand from human ER beta
[4] = target: T3, Mineralocorticoid receptor (Homo sapiens)
[5] = target: T4, Glucocorticoid receptor (Homo sapiens); remark: listed apart in the source
Description: as §1

[6] = target: T3, Mineralocorticoid receptor (Homo sapiens); conditions: 1 uM
Description: Antagonist activity against human mineralocorticoid receptor as displacement of radioligand, percent inhibition at 1 uM

[7] = target: T1, Progesterone receptor (Homo sapiens)
Description: (§2) Antagonist activity against human Progesterone receptor by displacement of radioligand

[8] = target: T1, Progesterone receptor (Homo sapiens); remark: listed apart in the source
Description: as §2

Chain of Estrogen receptor beta (Q92731 whole entry): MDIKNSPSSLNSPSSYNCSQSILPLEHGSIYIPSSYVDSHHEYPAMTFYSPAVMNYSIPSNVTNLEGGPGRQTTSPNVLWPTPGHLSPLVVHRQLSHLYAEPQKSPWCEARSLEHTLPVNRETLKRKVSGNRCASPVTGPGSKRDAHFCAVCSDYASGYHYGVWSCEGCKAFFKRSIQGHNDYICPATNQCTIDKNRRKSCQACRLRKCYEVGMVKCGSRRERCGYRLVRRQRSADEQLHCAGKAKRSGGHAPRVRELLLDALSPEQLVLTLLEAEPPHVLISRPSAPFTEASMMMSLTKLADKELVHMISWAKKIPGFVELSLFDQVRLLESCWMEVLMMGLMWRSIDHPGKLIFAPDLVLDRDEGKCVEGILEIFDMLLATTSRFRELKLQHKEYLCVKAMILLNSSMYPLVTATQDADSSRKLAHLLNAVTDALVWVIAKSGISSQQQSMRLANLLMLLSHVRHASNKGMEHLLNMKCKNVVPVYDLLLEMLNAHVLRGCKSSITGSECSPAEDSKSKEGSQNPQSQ

Row | Compound | Kif [1] | Ki (Progesterone receptor) | Kif [2] | Kif [3] | Ki (Estrogen receptor beta) | Kif [4] | Kif [5] | inhibition [6] | Kif [7] | Kif [8]
1 | CC#C[C@@]1(O)CC[C@@]2(Cc3ccccc3)c3ccc(O)cc3CC[C@@H]2C1 | > 1000 nM | > 10 µM | > 1000 nM | 10 nM | – | – | – | – | – | –
2 | CC#C[C@]1(O)CCC2C3CCC4=CC(=O)CC[C@]4(Cc4ccc(C)cc4)C3=CC[C@@]21C (some centres undefined) | – | – | – | – | > 10 µM | > 1000 nM | 12 nM | 0% | – | –
3 | O=C1CC[C@@]2(Cc3ccccc3)c3ccc(O)cc3CC[C@@H]2C1 | – | > 10 µM | – | – | – | – | – | – | > 1000 nM | –
4 | Oc1ccc2c(c1)CC[C@@H]1C[C@@](O)(C#CCl)CC[C@@]21Cc1ccccc1 | – | > 10 µM | – | – | – | > 1000 nM | 4.1 nM | – | – | > 1000 nM
